Values of other authors, collected in article PMC3461162 (British Journal of Cancer, 2012).

Conditions: phase I, currently being investigated; no reference given; cited from earlier work

**Q.** For `CNC(=O)c1cccc(-c2ccc3c(N4CCOC[C@@H]4C)nc(N4CCOC[C@@H]4C)nc3n2)c1` [AZD2014], which Rise in transaminases is on record?
**A.** no rise in transaminases has been reported
